Laboratory results reported in patent US12421225B2, “Heteroaromatic amide derivative and medicament containing the same” (KAKEN PHARMACEUTICAL CO., LTD., priority 2018, dated 2025).
Counter-ions that a name gives are not always drawn.

Legend:
human Nav1.7 = human Nav1.7 (Homo sapiens (Human), UniProt Q15858); assay: Human Nav1.7 inhibitory activity evaluation (automated patch clamp QPatch16X, HEK293A cells stably expressing human Nav1.7 and human Navβ1); format: cell-based
How it was run: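 IC50 calculated from the concentration-response of inward current evoked by the second −10 mV, 50 ms depolarisation, which follows a 15 s conditioning step at roughly 30-40% inactivation and a 100 ms −120 mV interval. Cells: HEK293A expressing human Nav1.7/Navβ1, automated patch clamp, room temperature, 0.1% DMSO final.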

human Nav1.5 = human Nav1.5 (Homo sapiens (Human), UniProt Q14524); assay: Human Nav1.5 inhibitory activity evaluation (automated patch clamp QPatch16X, HEK293 cells stably expressing human Nav1.5); format: cell-based
Sequence of human Nav1.5 (Q14524 whole entry): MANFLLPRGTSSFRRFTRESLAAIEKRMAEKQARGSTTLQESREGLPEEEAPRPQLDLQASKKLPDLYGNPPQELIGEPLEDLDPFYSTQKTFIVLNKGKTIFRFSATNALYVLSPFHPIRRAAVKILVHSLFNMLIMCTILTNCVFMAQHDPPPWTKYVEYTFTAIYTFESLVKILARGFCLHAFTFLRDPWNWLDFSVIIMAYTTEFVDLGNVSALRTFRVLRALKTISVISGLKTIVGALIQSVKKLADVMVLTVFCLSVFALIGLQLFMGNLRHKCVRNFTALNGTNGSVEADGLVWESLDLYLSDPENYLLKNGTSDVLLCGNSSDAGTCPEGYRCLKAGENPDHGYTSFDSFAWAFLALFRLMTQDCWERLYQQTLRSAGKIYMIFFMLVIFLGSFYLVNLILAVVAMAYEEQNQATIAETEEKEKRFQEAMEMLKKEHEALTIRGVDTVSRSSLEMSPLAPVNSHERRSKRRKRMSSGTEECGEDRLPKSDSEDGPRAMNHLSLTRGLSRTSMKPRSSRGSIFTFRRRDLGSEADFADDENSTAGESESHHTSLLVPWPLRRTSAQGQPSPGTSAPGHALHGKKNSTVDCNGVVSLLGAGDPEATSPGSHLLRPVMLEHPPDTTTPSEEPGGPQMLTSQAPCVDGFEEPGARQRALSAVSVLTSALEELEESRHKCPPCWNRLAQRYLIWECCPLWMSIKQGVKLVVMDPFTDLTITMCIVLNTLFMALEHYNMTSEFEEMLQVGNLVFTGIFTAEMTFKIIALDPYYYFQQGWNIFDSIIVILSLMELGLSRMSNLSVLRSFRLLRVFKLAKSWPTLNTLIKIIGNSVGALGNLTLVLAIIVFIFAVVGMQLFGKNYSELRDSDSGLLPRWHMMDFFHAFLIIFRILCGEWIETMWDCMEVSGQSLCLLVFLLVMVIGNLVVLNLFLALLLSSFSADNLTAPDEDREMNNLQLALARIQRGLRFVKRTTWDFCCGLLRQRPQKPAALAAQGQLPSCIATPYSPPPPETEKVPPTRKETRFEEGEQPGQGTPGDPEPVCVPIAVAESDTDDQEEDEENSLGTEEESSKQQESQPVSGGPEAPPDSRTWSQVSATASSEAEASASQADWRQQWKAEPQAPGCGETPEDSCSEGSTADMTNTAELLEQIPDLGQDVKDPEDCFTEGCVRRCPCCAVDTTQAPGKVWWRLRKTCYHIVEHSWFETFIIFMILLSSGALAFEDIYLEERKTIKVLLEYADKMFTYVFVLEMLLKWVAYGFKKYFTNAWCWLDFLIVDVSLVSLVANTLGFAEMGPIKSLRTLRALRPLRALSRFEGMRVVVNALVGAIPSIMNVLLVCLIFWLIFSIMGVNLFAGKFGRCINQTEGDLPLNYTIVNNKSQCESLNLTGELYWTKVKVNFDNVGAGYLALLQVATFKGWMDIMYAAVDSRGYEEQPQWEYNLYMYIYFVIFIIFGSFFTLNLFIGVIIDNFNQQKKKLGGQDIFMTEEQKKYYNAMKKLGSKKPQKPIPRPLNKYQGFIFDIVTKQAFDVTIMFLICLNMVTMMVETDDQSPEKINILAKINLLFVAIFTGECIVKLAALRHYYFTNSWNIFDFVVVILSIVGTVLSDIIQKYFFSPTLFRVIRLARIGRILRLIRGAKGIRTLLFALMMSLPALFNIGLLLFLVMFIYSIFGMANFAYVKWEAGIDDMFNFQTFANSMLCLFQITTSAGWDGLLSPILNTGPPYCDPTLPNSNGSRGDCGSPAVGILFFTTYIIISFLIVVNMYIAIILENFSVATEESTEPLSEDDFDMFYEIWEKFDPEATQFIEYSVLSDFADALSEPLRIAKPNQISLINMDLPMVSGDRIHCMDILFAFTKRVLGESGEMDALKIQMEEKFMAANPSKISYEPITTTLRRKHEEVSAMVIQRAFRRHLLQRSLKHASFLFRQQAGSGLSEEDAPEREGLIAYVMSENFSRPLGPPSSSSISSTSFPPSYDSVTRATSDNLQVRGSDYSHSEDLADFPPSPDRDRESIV
How it was run: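 IC50 derived from concentration-response of inward current at the 20th of 20 action-potential-mimicking pulses (holding −80 mV, leak corrected with −100 mV step). HEK293 cells stably expressing human Nav1.5, room temperature, extracellular pH 7.4, intracellular CsF-based pH 7.3, 0.1% DMSO.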

male ICR mice [1] = assay: Effect on acute pain (capsaicin-induced pain-related behavior, hind paw); format: in vivo
Description: Test Example 3: Effect on Acute Pain
Six-week old male ICR mice were used for the test. Test compounds were orally administered at 1-10 mg/kg and the mice were habituated to a clear observation cage for 60 minutes. The mice were lightly restrained under no anesthesia and 20 μL of 80 μg/mL (0.8% ethanol-saline) capsaicin solution was injected subcutaneously into the plantar surface of rihgt hind paw of mice. The mice were returned to the observation cage and, from just after that, the duration of pain-related behavior (licking, shaking) occurring in the right hind limb was measured as the reaction time for 5 minutes.
The inhibition rate of the test compound was determined by the following calculation formula. Test compound inhibition rate (%)=100×[1−(response time of test compound administered group/response time of vehicle control group)]

male ICR mice [2] = assay: Effect on a neuropathic pain (L5 spinal nerve cut, von Frey 50% pain threshold); format: in vivo; conditions: allodynia-developed mice, dose of 10 mg/kg or less, single oral administration
Description: Test Example 4: Effect on a Neuropathic Pain
Five-week old male ICR mice were used for the test. The skin and muscles were incised to expose the sixth lumbar vertebra under isoflurane anesthesia, and the right transverse process was removed. The L5 spinal nerve was isolated from the surrounding tissue to cut out, and then the incision site was sutured.
The 50% pain threshold of the plantar surface was determined by referring to the method of Chaplan S R et al. (J Neurosci Methods 1994, 53: 55-63) using von Frey filaments (0.008 g, 0.02 g, 0.04 g, 0.07 g, 0.16 g, 0.4 g and 0.6 g). First, the mice were placed in a measurement case with a lattice scaffold and habituatedd until the animal settled; 0.07 g of filament was pressed against the plantar surface for about 3 seconds. If withdrawal behavior was observed, the filament with the stimulation intensity one level lower was used to apply stimulation, and conversely, if the withdrawal behavior was not detected, the filament with the stimulation intensity one level higher was used to apply stimulation. By repeating this operation, starting from 2 times before and after the presence or absence of escape behavior changed, the results for a total of 6 times were recorded, to calculate a 50% pain threshold using the following calculation formula. 50% pain threshold (g)=(10^[Xf+κδ]/10000)
Xf is the value of the stimulus intensity of the filament used in the last stimulation (log value), κ is the value derived from the pattern of presence/absence of withdrawal behavior for 6 times, and δ is the difference in stimulus intensity (log value) between the filaments used (here 0.365).

[3] = HEK293A cells stably expressing human Nav1.7 and human Navβ1, automated patch clamp QPatch16X
[4] = HEK293 cells stably expressing human Nav1.5, automated patch clamp QPatch16X

Sequence of human Nav1.7 (Q15858 whole entry): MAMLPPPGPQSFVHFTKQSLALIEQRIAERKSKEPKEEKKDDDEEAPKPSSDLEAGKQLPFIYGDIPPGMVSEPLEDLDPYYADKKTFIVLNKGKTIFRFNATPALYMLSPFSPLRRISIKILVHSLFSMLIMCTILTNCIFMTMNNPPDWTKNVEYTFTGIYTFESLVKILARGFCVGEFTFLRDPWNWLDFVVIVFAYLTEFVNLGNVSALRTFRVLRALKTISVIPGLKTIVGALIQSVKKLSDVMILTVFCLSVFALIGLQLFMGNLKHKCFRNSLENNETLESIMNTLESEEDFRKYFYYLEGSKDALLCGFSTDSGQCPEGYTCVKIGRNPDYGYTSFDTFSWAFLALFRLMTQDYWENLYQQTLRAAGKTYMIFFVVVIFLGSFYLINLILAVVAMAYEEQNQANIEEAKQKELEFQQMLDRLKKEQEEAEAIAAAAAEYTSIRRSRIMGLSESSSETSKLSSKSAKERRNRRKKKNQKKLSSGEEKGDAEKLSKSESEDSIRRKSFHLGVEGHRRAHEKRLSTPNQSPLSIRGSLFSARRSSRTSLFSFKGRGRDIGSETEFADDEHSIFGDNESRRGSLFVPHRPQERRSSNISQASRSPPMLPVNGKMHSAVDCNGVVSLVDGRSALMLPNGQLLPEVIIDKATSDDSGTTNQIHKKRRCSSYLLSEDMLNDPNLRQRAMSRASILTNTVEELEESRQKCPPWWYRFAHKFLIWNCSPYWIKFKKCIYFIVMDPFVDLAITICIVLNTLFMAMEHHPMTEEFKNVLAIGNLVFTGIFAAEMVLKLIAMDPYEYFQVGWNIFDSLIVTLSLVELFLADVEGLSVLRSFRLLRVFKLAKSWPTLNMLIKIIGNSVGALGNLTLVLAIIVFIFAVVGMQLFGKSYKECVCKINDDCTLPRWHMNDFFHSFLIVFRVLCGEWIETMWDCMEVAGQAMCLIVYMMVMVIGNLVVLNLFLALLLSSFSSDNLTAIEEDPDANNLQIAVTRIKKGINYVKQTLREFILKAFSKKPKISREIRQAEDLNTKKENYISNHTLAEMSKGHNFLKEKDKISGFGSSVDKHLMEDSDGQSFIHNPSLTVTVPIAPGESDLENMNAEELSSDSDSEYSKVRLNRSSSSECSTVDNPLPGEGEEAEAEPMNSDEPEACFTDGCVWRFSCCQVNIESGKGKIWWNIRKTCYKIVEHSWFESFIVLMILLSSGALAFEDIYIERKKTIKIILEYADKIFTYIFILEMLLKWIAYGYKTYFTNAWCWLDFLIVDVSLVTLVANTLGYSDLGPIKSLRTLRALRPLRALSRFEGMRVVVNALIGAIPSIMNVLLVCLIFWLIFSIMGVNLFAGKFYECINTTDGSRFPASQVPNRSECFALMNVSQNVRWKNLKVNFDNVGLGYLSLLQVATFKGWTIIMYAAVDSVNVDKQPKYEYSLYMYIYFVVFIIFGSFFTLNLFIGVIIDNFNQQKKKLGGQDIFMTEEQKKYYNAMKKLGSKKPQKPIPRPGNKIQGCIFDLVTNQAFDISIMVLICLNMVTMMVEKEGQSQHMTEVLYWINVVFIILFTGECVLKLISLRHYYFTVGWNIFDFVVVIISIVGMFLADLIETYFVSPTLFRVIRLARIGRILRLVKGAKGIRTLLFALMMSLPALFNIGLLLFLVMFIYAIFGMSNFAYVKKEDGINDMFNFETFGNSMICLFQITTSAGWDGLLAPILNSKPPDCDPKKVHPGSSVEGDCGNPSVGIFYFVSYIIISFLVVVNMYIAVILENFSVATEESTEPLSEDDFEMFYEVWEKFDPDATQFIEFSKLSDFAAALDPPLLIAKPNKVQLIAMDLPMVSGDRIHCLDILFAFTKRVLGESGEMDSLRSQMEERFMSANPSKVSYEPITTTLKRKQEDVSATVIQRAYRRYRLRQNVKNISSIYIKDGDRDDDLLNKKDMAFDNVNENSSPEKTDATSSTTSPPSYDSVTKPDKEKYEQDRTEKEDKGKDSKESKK
Sequence of human Nav1.7 (Q07699 19-218 partner): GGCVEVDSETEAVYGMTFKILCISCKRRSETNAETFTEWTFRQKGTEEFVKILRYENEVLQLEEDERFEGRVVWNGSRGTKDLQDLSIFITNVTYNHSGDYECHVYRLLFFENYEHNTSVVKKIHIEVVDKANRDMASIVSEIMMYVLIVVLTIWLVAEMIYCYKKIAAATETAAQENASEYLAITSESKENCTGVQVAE

Compound: N#Cc1ccc2c(c1)C[C@@H](NC(=O)c1cc3n(n1)CCC(COCC1CC1)O3)CO2 (single isomer, unassigned) [103 (isomer A)]
- IC50 (human Nav1.7; [3]): < 1000 nM
- IC50 (human Nav1.5; [4]): ≥ 3000 nM
- Inhibition rate (%) (male ICR mice [1]): A (Compounds with an inhibition rate of 30% or more are indicated by the letter “A”)
- 50% pain threshold (antiallodynic effect) (male ICR mice [2]): increased the 50% pain threshold

Compound: N#Cc1ccc2c(c1)C[C@@H](NC(=O)c1cc3n(n1)CCC(COC(F)(F)F)O3)CO2 (single isomer, unassigned) [134 (isomer A)]
- IC50 (human Nav1.7; [3]): < 1000 nM
- IC50 (human Nav1.5; [4]): 1000 to 3000 nM
- Inhibition rate (%) (male ICR mice [1]): A (Compounds with an inhibition rate of 30% or more are indicated by the letter “A”)
- 50% pain threshold (antiallodynic effect) (male ICR mice [2]): increased the 50% pain threshold

Compound: O=C(N[C@H]1COc2ccc(C(F)(F)F)cc2C1)c1cc2n(n1)CCC(C(F)F)O2 (single isomer, unassigned) [161 (isomer A)]
- IC50 (human Nav1.7; human Nav1.7, automated patch clamp): < 1000 nM
- IC50 (human Nav1.5; human Nav1.5, automated patch clamp): ≥ 3000 nM
- Inhibition rate (%) (male ICR mice [1]): A (Compounds with an inhibition rate of 30% or more are indicated by the letter “A”)
- 50% pain threshold (antiallodynic effect) (male ICR mice [2]): increased the 50% pain threshold

Compound: N#Cc1ccc2c(c1)C[C@@H](NC(=O)c1cc3n(n1)CCC(c1ccccc1F)O3)CO2 (stereo partly drawn) [Example 70, N—((R)-6-cyanochroman-3-yl)-5-(2-fluorophenyl)-6,7-dihydro-5H-pyrazolo[5,1-b][1,3]oxazine-2-carboxamide]
- IC50 (human Nav1.7; [3]): < 1000 nM
- IC50 (human Nav1.5; [4]): 1000 to 3000 nM
- Inhibition rate (%) (male ICR mice [1]): A (Compounds with an inhibition rate of 30% or more are indicated by the letter “A”)
- 50% pain threshold (antiallodynic effect) (male ICR mice [2]): increased the 50% pain threshold

Compound: N#Cc1ccc2c(c1)C[C@@H](NC(=O)c1cc3n(n1)CCN(Cc1ccc(F)cc1)C3)CO2 [Example 290, (R)—N-(6-cyanochroman-3-yl)-5-(4-fluorobenzyl)-4,5,6,7-tetrahydropyrazolo[1,5-a]pyrazine-2-carboxamide hydrochloride]
- Inhibition rate (%) (male ICR mice [1]): A (Compounds with an inhibition rate of 30% or more are indicated by the letter “A”)
- 50% pain threshold (antiallodynic effect) (male ICR mice [2]): increased the 50% pain threshold
